{
  "source": "patent EP3375430A1",
  "about": "“FRAGRANCE COMPOSITIONS” (Takasago International Corporation, priority 2017, dated 2018)",
  "key": {"[1]": {"test": "Headspace concentration of fragrance ingredients over blotter (thermal desorption GC-MS);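 as to headspace concentration in composition C1 compared to control EdT1: C1 is an invention composition and EdT1 a conventional EdT of fragrance TAK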", "format": "physicochemical", "how_it_was_run": "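Fragrance (100µL) applied to a 10 cm perfumers' blotter held on a 32°C hot plate, equilibrated 5 min; headspace drawn through Tenax TA tubes at 17mL/min until 280mL collected, repeated at later sampling times. Tubes thermally desorbed splitless onto HP-5MS column, GC-MS detection, mass range 35 to 350.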"}, "[2]": {"test": "Amount of fragrance ingredients retained on paper blotter after evaporation (ethanol extraction, GC-MS)", "format": "physicochemical", "how_it_was_run": "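100 µL of fragrance formulation applied to paper blotters kept at 32°C open to air; at each time three blotters extracted 1 h in ethanol with methyl decanoate internal standard and analysed by GC-MS (HP-5MS, 50–280°C). Amounts averaged over triplicates and expressed as percent of time-zero level.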"}},
  "data": [
    {"compound": "CC(=O)OC1CCCCC1C(C)(C)C", "note": "(centres unmarked) [Verdox™, (2-tert-butylcyclohexyl) acetate]", "values": [
      {"measurement": "headspace concentration in composition C8 compared to control EdT4", "setting": "[1]; COM1 dosed at 20 wt%, up to 8 hours, Figures 8 to 10", "value": "significantly higher"},
      {"measurement": "headspace concentration in composition C1 compared to control EdT1", "setting": "[1]; fragrance TAK, T0 + 4h, Figure 3", "value": "significantly greater"},
      {"measurement": "headspace concentration in composition C14 compared to control EdT1", "setting": "[1]; fragrance TAK, T0+4h and T0+8h, Figures 17 and 18", "value": "significantly greater"},
      {"measurement": "headspace concentration in composition C15 compared to control EdT1", "setting": "[1]; fragrance TAK, T0+4h and T0+8h, Figures 20 and 21, difference significant for linalool, linalyl acetate and Verdox™", "value": "greater"},
      {"measurement": "headspace concentration in composition C1 compared to control EdT1", "setting": "[1]; fragrance TAK, T0 + 8h, Figure 4", "value": "much greater"},
      {"measurement": "headspace concentration in composition C1 compared to control EdT1", "setting": "[1]; fragrance TAK, after 1 hour, Figure 2", "value": "greater"},
      {"measurement": "amount of fragrance ingredient retained on blotter (percentage of the initial amount)", "setting": "[2]; Table 3, fragrance TAK in C1, 15 min, 32°C", "value": 80, "unit": "%"},
      {"measurement": "amount of fragrance ingredient retained on blotter (percentage of the initial amount)", "setting": "[2]; Table 3, fragrance TAK in C1, 60 min, 32°C", "value": 62, "unit": "%"},
      {"measurement": "amount of fragrance ingredient retained on blotter (percentage of the initial amount)", "setting": "[2]; Table 3, fragrance TAK in C1, 120 min, 32°C", "value": 39, "unit": "%"},
      {"measurement": "amount of fragrance ingredient retained on blotter (percentage of the initial amount)", "setting": "[2]; Table 3, fragrance TAK in C1, 240 min, 32°C", "value": 18, "unit": "%"},
      {"measurement": "amount of fragrance ingredient retained on blotter (percentage of the initial amount)", "setting": "[2]; Table 3, fragrance TAK in C1, 480 min, 32°C", "value": 2, "unit": "%"},
      {"measurement": "amount of fragrance ingredient retained on blotter (percentage of the initial amount)", "setting": "[2]; Table 3, fragrance TAK in EdT1, 15 min, 32°C", "value": 70, "unit": "%"},
      {"measurement": "amount of fragrance ingredient retained on blotter (percentage of the initial amount)", "setting": "[2]; Table 3, fragrance TAK in EdT1, 60 min, 32°C", "value": 29, "unit": "%"},
      {"measurement": "amount of fragrance ingredient retained on blotter (percentage of the initial amount)", "setting": "[2]; Table 3, fragrance TAK in EdT1, 120 min, 32°C", "value": 2, "unit": "%"},
      {"measurement": "amount of fragrance ingredient retained on blotter (percentage of the initial amount)", "setting": "[2]; Table 3, fragrance TAK in EdT1, 240 min, 32°C", "value": "<1", "unit": "%"},
      {"measurement": "amount of fragrance ingredient retained on blotter (percentage of the initial amount)", "setting": "[2]; Table 3, fragrance TAK in EdT1, 480 min, 32°C", "value": 1, "unit": "%"},
      {"measurement": "amount of fragrance ingredient retained on blotter (percentage of the initial amount)", "setting": "[2]; Table 3, fragrance TAK in EdT1 or C1, T0, set at 100% (normalisation)", "value": 100, "unit": "%"},
      {"measurement": "amount of fragrance ingredient retained on blotter (percentage of the initial amount)", "setting": "[2]; Table 4, fragrance TAK in C2, 15 min, 32°C", "value": 92, "unit": "%"},
      {"measurement": "amount of fragrance ingredient retained on blotter (percentage of the initial amount)", "setting": "[2]; Table 4, fragrance TAK in C2, 480 min, 32°C", "value": 3, "unit": "%"},
      {"measurement": "amount of fragrance ingredient retained on blotter (percentage of the initial amount)", "setting": "[2]; Table 4, fragrance TAK in EdT1, 15 min, 32°C", "value": 74, "unit": "%"},
      {"measurement": "amount of fragrance ingredient retained on blotter (percentage of the initial amount)", "setting": "[2]; Table 4, fragrance TAK in EdT1, 480 min, 32°C", "value": "<1", "unit": "%"},
      {"measurement": "amount of fragrance ingredient retained on blotter (percentage of the initial amount)", "setting": "[2]; Table 4, fragrance TAK in EdT1 or C2, T0, set at 100% (normalisation)", "value": 100, "unit": "%"},
      {"measurement": "amount of fragrance ingredient retained on blotter (percentage of the initial amount)", "setting": "[2]; Table 5, fragrance TAK in C3, 15 min, 32°C", "value": 83, "unit": "%"},
      {"measurement": "amount of fragrance ingredient retained on blotter (percentage of the initial amount)", "setting": "[2]; Table 5, fragrance TAK in C3, 60 min, 32°C", "value": 64, "unit": "%"},
      {"measurement": "amount of fragrance ingredient retained on blotter (percentage of the initial amount)", "setting": "[2]; Table 5, fragrance TAK in C3, 120 min, 32°C", "value": 44, "unit": "%"},
      {"measurement": "amount of fragrance ingredient retained on blotter (percentage of the initial amount)", "setting": "[2]; Table 5, fragrance TAK in C3, 240 min, 32°C", "value": 27, "unit": "%"},
      {"measurement": "amount of fragrance ingredient retained on blotter (percentage of the initial amount)", "setting": "[2]; Table 5, fragrance TAK in C3, 480 min, 32°C", "value": 3, "unit": "%"},
      {"measurement": "amount of fragrance ingredient retained on blotter (percentage of the initial amount)", "setting": "[2]; Table 5, fragrance TAK in C3, 1440 min, 32°C", "value": "<1", "unit": "%"},
      {"measurement": "amount of fragrance ingredient retained on blotter (percentage of the initial amount)", "setting": "[2]; Table 5, fragrance TAK in EdT1, 15 min, 32°C", "value": 70, "unit": "%"},
      {"measurement": "amount of fragrance ingredient retained on blotter (percentage of the initial amount)", "setting": "[2]; Table 5, fragrance TAK in EdT1, 60 min, 32°C", "value": 27, "unit": "%"},
      {"measurement": "amount of fragrance ingredient retained on blotter (percentage of the initial amount)", "setting": "[2]; Table 5, fragrance TAK in EdT1, 120 min, 32°C", "value": 2, "unit": "%"},
      {"measurement": "amount of fragrance ingredient retained on blotter (percentage of the initial amount)", "setting": "[2]; Table 5, fragrance TAK in EdT1, 240 min, 32°C", "value": "<1", "unit": "%"},
      {"measurement": "amount of fragrance ingredient retained on blotter (percentage of the initial amount)", "setting": "[2]; Table 5, fragrance TAK in EdT1, 480 min, 32°C", "value": 1, "unit": "%"},
      {"measurement": "amount of fragrance ingredient retained on blotter (percentage of the initial amount)", "setting": "[2]; Table 5, fragrance TAK in EdT1, 1440 min, 32°C", "value": "<1", "unit": "%"},
      {"measurement": "amount of fragrance ingredient retained on blotter (percentage of the initial amount)", "setting": "[2]; Table 5, fragrance TAK in EdT1 or C3, T0, set at 100% (normalisation)", "value": 100, "unit": "%"},
      {"measurement": "amount of fragrance ingredient retained on blotter (percentage of the initial amount)", "setting": "[2]; Table 6, fragrance TAK in C4, 15 min, 32°C", "value": 83, "unit": "%"},
      {"measurement": "amount of fragrance ingredient retained on blotter (percentage of the initial amount)", "setting": "[2]; Table 6, fragrance TAK in C4, 60 min, 32°C", "value": 64, "unit": "%"},
      {"measurement": "amount of fragrance ingredient retained on blotter (percentage of the initial amount)", "setting": "[2]; Table 6, fragrance TAK in C4, 120 min, 32°C", "value": 36, "unit": "%"},
      {"measurement": "amount of fragrance ingredient retained on blotter (percentage of the initial amount)", "setting": "[2]; Table 6, fragrance TAK in C4, 240 min, 32°C", "value": 18, "unit": "%"},
      {"measurement": "amount of fragrance ingredient retained on blotter (percentage of the initial amount)", "setting": "[2]; Table 6, fragrance TAK in C4, 480 min, 32°C", "value": 3, "unit": "%"},
      {"measurement": "amount of fragrance ingredient retained on blotter (percentage of the initial amount)", "setting": "[2]; Table 6, fragrance TAK in EdT1, 15 min, 32°C", "value": 70, "unit": "%"},
      {"measurement": "amount of fragrance ingredient retained on blotter (percentage of the initial amount)", "setting": "[2]; Table 6, fragrance TAK in EdT1, 60 min, 32°C", "value": 29, "unit": "%"},
      {"measurement": "amount of fragrance ingredient retained on blotter (percentage of the initial amount)", "setting": "[2]; Table 6, fragrance TAK in EdT1, 120 min, 32°C", "value": 2, "unit": "%"},
      {"measurement": "amount of fragrance ingredient retained on blotter (percentage of the initial amount)", "setting": "[2]; Table 6, fragrance TAK in EdT1, 240 min, 32°C", "value": "<1", "unit": "%"},
      {"measurement": "amount of fragrance ingredient retained on blotter (percentage of the initial amount)", "setting": "[2]; Table 6, fragrance TAK in EdT1, 480 min, 32°C", "value": 1, "unit": "%"},
      {"measurement": "amount of fragrance ingredient retained on blotter (percentage of the initial amount)", "setting": "[2]; Table 6, fragrance TAK in EdT1 or C4, T0, set at 100% (normalisation)", "value": 100, "unit": "%"},
      {"measurement": "amount of fragrance ingredient retained on blotter (percentage of the initial amount)", "setting": "[2]; Table 9, fragrance COM1 in C5, T0 + 15 min", "value": 75.1, "unit": "%"},
      {"measurement": "amount of fragrance ingredient retained on blotter (percentage of the initial amount)", "setting": "[2]; Table 9, fragrance COM1 in C5, T0 + 480 min", "value": 1.9, "unit": "%"},
      {"measurement": "amount of fragrance ingredient retained on blotter (percentage of the initial amount)", "setting": "[2]; Table 9, fragrance COM1 in C5, T0 +1440 min", "value": "<1", "unit": "%"},
      {"measurement": "amount of fragrance ingredient retained on blotter (percentage of the initial amount)", "setting": "[2]; Table 9, fragrance COM1 in C6, T0 + 15 min", "value": 66.4, "unit": "%"},
      {"measurement": "amount of fragrance ingredient retained on blotter (percentage of the initial amount)", "setting": "[2]; Table 9, fragrance COM1 in C6, T0 + 480 min", "value": 1.7, "unit": "%"},
      {"measurement": "amount of fragrance ingredient retained on blotter (percentage of the initial amount)", "setting": "[2]; Table 9, fragrance COM1 in C6, T0 +1440 min", "value": 1.0, "unit": "%"},
      {"measurement": "amount of fragrance ingredient retained on blotter (percentage of the initial amount)", "setting": "[2]; Table 9, fragrance COM1 in EdT2, C5 or C6, T0, set at 100% (normalisation)", "value": 100, "unit": "%"},
      {"measurement": "amount of fragrance ingredient retained on blotter (percentage of the initial amount)", "setting": "[2]; Table 9, fragrance COM1 in EdT2, T0 + 15 min", "value": 61.7, "unit": "%"},
      {"measurement": "amount of fragrance ingredient retained on blotter (percentage of the initial amount)", "setting": "[2]; Table 9, fragrance COM1 in EdT2, T0 + 480 min", "value": 3.7, "unit": "%"},
      {"measurement": "amount of fragrance ingredient retained on blotter (percentage of the initial amount)", "setting": "[2]; Table 9, fragrance COM1 in EdT2, T0 +1440 min", "value": 2.90, "unit": "%"}
    ]}
  ]
}
